Where “and” joins values, the source holds several entries; their conditions need not be identical. Equal entries are not always repeated.
Key:
[1] = system: patients with symptomatic oHCM; assay: SEQUOIA-HCM phase 3 trial: echocardiography (LVOT gradients, cardiac structure and function); format: in vivo, human; conditions: for LA Volume Index / LV Ejection Fraction / LV Mass Index / LV Maximal Wall Thickness: Non-CMR Cohort N = 225 (Aficamten N = 117)
Description: The following example describes a phase 3, multi-center, randomized, double-blind, placebo-controlled trial to evaluate the efficacy and safety of aficamten in adults with symptomatic hypertrophic cardiomyopathy and left ventricular outflow tract obstruction. This trial evaluated the effects of treatment with aficamten over a 24-week period on cardiopulmonary exercise capacity and health status in patients with symptomatic oHCM. This trial was intended to establish the efficacy and safety of aficamten with respect to improvements in exercise capacity and patient symptoms, as well as reduction in left ventricular outflow tract gradient (LVOT-G) in patients with oHCM.
This was a Phase 3 randomized, placebo-controlled, double-blind, multi-center trial in patients with symptomatic oHCM. Approximately 270 eligible patients were to be randomized in a 1:1 ratio to receive aficamten or placebo. Doses of 5, 10, 15, or 20 mg or matching placebo were administered in an escalating manner using echocardiography to guide dose titration. Randomization was stratified by use of beta blockers and CPET exercise modality.
The trial comprised three periods. The screening period was up to 6 weeks in duration. The double-blind placebo-controlled treatment period lasted 24 weeks. Following the final dose of aficamten, there was a 4-week safety follow-up period. Aficamten was administered orally once daily. During the initial six weeks of the treatment period, aficamten doses were individually titrated at Weeks 2, 4, and 6 using echocardiography. […] An echocardiogram was performed at each subsequent visit during the trial and the dose down-titrated if necessary. The primary endpoint of pVO2 was measured by CPET at screening and at end of treatment (Week 24). If applicable, patients continued taking background HCM medications consistent with regional clinical practice guidelines during the trial.
Echocardiography. Echocardiography was done during screening and prior to dosing on Day 1. Echocardiography was also performed 2 hours after dosing in the clinic on Weeks 2, 4, 6, 8, 12, 16, 20, 24, and 28.
Certified sonographers performed echocardiography using standard high-quality, high-fidelity machines. Whenever possible, the same sonographer performed all studies for a single patient. Echocardiograms were performed after the patient had been resting in a supine position for at least 10 minutes and in accordance with the echocardiography manual. Instructions for the performance of the Valsalva maneuver and imaging the LVOT-G were also included in the echocardiography manual.
Echocardiographic parameters measured at least included the left ventricular parameters (resting left ventricular outflow tract pressure gradient (LVOT-G), post-Valsalva LVOT-G, LVEF, LVFS, global longitudinal strain (GLS), left ventricular end diastolic diameter (LVEDD), left ventricular end diastolic volume (LVEDV), left ventricular end systolic diameter (LVESD), left ventricular end systolic volume (LVESV), left ventricular cardiac output (LVCO), LV Stroke Volume, LVOT velocity time integral (VTI), interventricular septum thickness (IVST), isovolumic contraction time (IVCT), IVRT, E/E, ratio (septal and lateral), and left atrial volume (LAV)) in addition to right heart function metrics detailed in the echocardiography protocol.
All echocardiograms (including unscheduled) were sent to the core laboratory for interpretation. On-site interpretation of LVEF and LVOT-G were used for dose escalation and reduction decisions via IWRS. The core laboratory quantification of the echocardiograms was used for all statistical analyses.
Baseline values are presented as mean±SD. Placebo corrected differences are presented as mean±95% CI and adjusted for treatment and stratification by beta-blockers and exercise mode (bicycle vs treadmill). […]

[2] = system: patients with symptomatic oHCM; assay: SEQUOIA-HCM: EQ-5D-5L index and Visual Analogue Scale quality of life; format: in vivo, human
Description: A further exploratory objective of this trial was to evaluate the effect of aficamten on health status and health-related quality of life as measured by PRO questionnaire, as determine by changes from baseline to Week 24 in individual responses to the EuroQol 5-dimension 5-level instrument (EQ-5D-5L). Improved exercise capacity, disease-specific quality-of-life (QoL), and hemodynamics in patients with obstructive hypertrophic cardiomyopathy (oHCM). Participants underwent blinded dose escalation over 6 weeks and were treated for 24 weeks followed by 4-week washout. EQ-5D-5L index (ranges from 0 to 1) and the Visual Analogue Scale (VAS; from 0 to 100) was measured at baseline and weeks 0, 2, 4, 8, 12, 16, 20, 24, with higher scores indicating better QoL. Aficamten treatment effect on EQ-5D-5L was estimated using linear regression (specific study visits) and mixed effects regression (overall treatment effect) using all follow-up data through week 24, with model adjustments for baseline EQ-5D-5L score and randomization stratification variables.

[3] = Echo Measurements, Non-CMR Cohort N = 225, vs placebo
[4] = Treatment (Week 24), listed as Aficamten
[5] = overall treatment effect through week 24

SMILES: CCc1nc(-c2ccc3c(c2)CC[C@H]3NC(=O)c2cnn(C)c2)no1 [aficamten, (R)—N-(5-(5-ethyl-1,2,4-oxadiazol-3-yl)-2,3-dihydro-1H-inden-1-yl)-1-methyl-1H-pyrazole-4-carboxamide]
- patients of the SAM-resolution group reverting to baseline mitral valve SAM after washout ([1]; 50/61): 82%
- patients with complete resolution of mitral valve SAM ([1]; 61/117, 24 weeks treatment): 52%
- LA Volume Index ([1]; Echo Measurements, Baseline): 40 ± 13 mL/m^2
- LV Ejection Fraction ([1]; Echo Measurements, Baseline): 74.8 ± 5.6%
- LV Mass Index ([1]; Echo Measurements, Baseline): 131 ± 33 g/m^2
- LV Maximal Wall Thickness ([1]; Echo Measurements, Baseline): 20.7 ± 3.0 mm
- LA Volume Index ([1]; Echo Measurements, Week 24): 37 ± 11 mL/m^2
- LV Ejection Fraction ([1]; Echo Measurements, Week 24): 67.8 ± 7.4%
- LV Mass Index ([1]; Echo Measurements, Week 24): 126 ± 33 g/m^2
- LV Maximal Wall Thickness ([1]; Echo Measurements, Week 24): 19.2 ± 3.2 mm
- LA Volume Index, Treatment Effect [1, 3]: −5 mL/m^2
- LV Ejection Fraction, Treatment Effect [1, 3]: −5.3%
- LV Mass Index, Treatment Effect [1, 3]: −13 g/m^2
- LV Maximal Wall Thickness, Treatment Effect [1, 3]: −1.2 mm
- Inferolateral wall: placebo-corrected treatment difference (95% CI) ([1]; Treatment (Week 24)): −0.8 (−1.3, −0.3) mm
- Interventricular septal wall: placebo-corrected treatment difference (95% CI) ([1]; Treatment (Week 24)): −1.0 (−1.6, −0.3) mm
- LA volume index: placebo-corrected treatment difference (95% CI) ([1]; Treatment (Week 24)): −3.8 ml/m2
- LA width: placebo-corrected treatment difference (95% CI) ([1]; Treatment (Week 24)): −2.7 (−3.8, −1.7) mm
- LV Fractional Shortening: placebo-corrected treatment difference (95% CI) ([1]; Treatment (Week 24)): −4 (−7, −2) %
- LV end diastolic dimension: placebo-corrected treatment difference (95% CI) ([1]; Treatment (Week 24)): −0.3 (−1.1, 0.5) mm
- LV end diastolic volume index: placebo-corrected treatment difference (95% CI) ([1]; Treatment (Week 24)): −0.2 (−1.5, 1.2) ml/m2
- LV end systolic dimension: placebo-corrected treatment difference (95% CI) ([1]; Treatment (Week 24)): +1.6 (0.7, 2.4) mm
- LV end systolic volume index: placebo-corrected treatment difference (95% CI) ([1]; Treatment (Week 24)): +1.7 ml/m2
- LV mass index: placebo-corrected treatment difference (95% CI) ([1]; Treatment (Week 24)): −12.2 (−18.0, −6.5) g/m2
- LVOT Gradient, Valsalva: placebo-corrected treatment difference (95% CI) ([1]; Treatment (Week 24)): −50 mmHg
- LVOT Gradient, rest: placebo-corrected treatment difference (95% CI) ([1]; Treatment (Week 24)): −40 mmHg
- Lateral E/e′: placebo-corrected treatment difference (95% CI) ([1]; Treatment (Week 24)): −3.9
- Lateral e′ velocity: placebo-corrected treatment difference (95% CI) ([1]; Treatment (Week 24)): +1.2 cm/s
- Max wall thickness: placebo-corrected treatment difference (95% CI) ([1]; Treatment (Week 24)): −1.2 (−1.8, −0.6) mm
- Peak A wave velocity: placebo-corrected treatment difference (95% CI) ([1]; Treatment (Week 24)): −2.4 (−6.3, 1.5) cm/s
- Peak E wave velocity: placebo-corrected treatment difference (95% CI) ([1]; Treatment (Week 24)): −7.5 (−11.7, −3.2) cm/s
- RV s′ velocity: placebo-corrected treatment difference (95% CI) ([1]; Treatment (Week 24)): −1.4(−2.0, −0.9) cm/s
- Septal E/e′: placebo-corrected treatment difference (95% CI) ([1]; Treatment (Week 24)): −3.6
- Septal e′ velocity: placebo-corrected treatment difference (95% CI) ([1]; Treatment (Week 24)): +0.5 cm/s
- TAPSE: placebo-corrected treatment difference (95% CI) ([1]; Treatment (Week 24)): −2.1 (−3.2,−1.1) mm
- LA volume index: placebo-corrected treatment difference (95% CI) [1, 4]: −3.8 (−5.5, −2.2) ml/m2
- LV Ejection Fraction: placebo-corrected treatment difference (95% CI) [1, 4]: −4.8% and −5 (−6, −3) %
- LV end systolic volume index: placebo-corrected treatment difference (95% CI) [1, 4]: +1.7 (1.0, 2.4) ml/m2
- LV global circumferential strain (absolute): placebo-corrected treatment difference (95% CI) [1, 4]: −3.7% and −3.7 (−5.6, −1.8) %
- LVOT Gradient, Valsalva: placebo-corrected treatment difference (95% CI) [1, 4]: −50 (−57, −44) mmHg
- LVOT Gradient, rest: placebo-corrected treatment difference (95% CI) [1, 4]: −40 (−46, −34) mmHg
- Lateral E/e′: placebo-corrected treatment difference (95% CI) [1, 4]: −3.9 (−5.0, −2.8)
- Lateral e′ velocity: placebo-corrected treatment difference (95% CI) [1, 4]: 1.2 (0.7, 1.6) cm/s
- Septal E/e′: placebo-corrected treatment difference (95% CI) [1, 4]: −3.6 (−4.8, −2.5)
- Septal e′ velocity: placebo-corrected treatment difference (95% CI) [1, 4]: 0.5 (0.2, 0.8) cm/s
- Inferolateral wall: placebo-corrected treatment difference (95% CI) ([1]; Washout (Week 28)): −0.2 (−0.8, 0.3) mm
- Interventricular septal wall: placebo-corrected treatment difference (95% CI) ([1]; Washout (Week 28)): −0.3 (−1.0, 0.4) mm
- LA volume index: placebo-corrected treatment difference (95% CI) ([1]; Washout (Week 28)): −3.0 (−4.9, −1.0) ml/m2
- LA width: placebo-corrected treatment difference (95% CI) ([1]; Washout (Week 28)): −0.8 (−1.8, 0.3) mm
- LV Ejection Fraction: placebo-corrected treatment difference (95% CI) ([1]; Washout (Week 28)): −1 (−2, 1) %
- LV Fractional Shortening: placebo-corrected treatment difference (95% CI) ([1]; Washout (Week 28)): −1 (−3, 2) %
- LV end diastolic dimension: placebo-corrected treatment difference (95% CI) ([1]; Washout (Week 28)): −0.7 (−1.6, 0.2) mm
- LV end diastolic volume index: placebo-corrected treatment difference (95% CI) ([1]; Washout (Week 28)): −1.2 (−2.5, 0.1) ml/m2
- LV end systolic dimension: placebo-corrected treatment difference (95% CI) ([1]; Washout (Week 28)): −0.2 (−1.1, 0.8) mm
- LV end systolic volume index: placebo-corrected treatment difference (95% CI) ([1]; Washout (Week 28)): −0.1 (−0.7, 0.5) ml/m2
- LV global circumferential strain (absolute): placebo-corrected treatment difference (95% CI) ([1]; Washout (Week 28)): −0.8 (−2.5, 0.9) %
- LV global longitudinal strain (absolute): placebo-corrected treatment difference (95% CI) ([1]; Washout (Week 28)): −0.1 (−0.6, 0.5) %
- LV mass index: placebo-corrected treatment difference (95% CI) ([1]; Washout (Week 28)): −3.7 (−10.2, 2.8) g/m2
- LVOT Gradient, Valsalva: placebo-corrected treatment difference (95% CI) ([1]; Washout (Week 28)): −1 (−8, 6) mmHg
- LVOT Gradient, rest: placebo-corrected treatment difference (95% CI) ([1]; Washout (Week 28)): −1 (−6, 7) mmHg
- Lateral E/e′: placebo-corrected treatment difference (95% CI) ([1]; Washout (Week 28)): −0.2 (−1.6, 1.2)
- Lateral e′ velocity: placebo-corrected treatment difference (95% CI) ([1]; Washout (Week 28)): −0.2 (−0.6, 0.3) cm/s
- Peak A wave velocity: placebo-corrected treatment difference (95% CI) ([1]; Washout (Week 28)): 3.2 (−0.5, 6.9) cm/s
- Peak E wave velocity: placebo-corrected treatment difference (95% CI) ([1]; Washout (Week 28)): −1.6 (−5.8, 2.7) cm/s
- RV s′ velocity: placebo-corrected treatment difference (95% CI) ([1]; Washout (Week 28)): +0.3 (−0.2, 0.9) cm/s
- Septal E/e′: placebo-corrected treatment difference (95% CI) ([1]; Washout (Week 28)): −0.6 (−1.7, 0.6)
- Septal e′ velocity: placebo-corrected treatment difference (95% CI) ([1]; Washout (Week 28)): −0.0 (−0.3, 0.2) cm/s
- TAPSE: placebo-corrected treatment difference (95% CI) ([1]; Washout (Week 28)): +0.8 (−0.3, 1.9) mm
- rest LV outflow tract gradient on treatment ([1]; end of treatment period, from 55±27 at baseline): 20±17 mmHg
- Valsalva LV outflow tract gradient on treatment ([1]; end of treatment period, from 83±32 at baseline): 35±25 mmHg
- reduction of Valsalva LVOT gradient compared to baseline ([1]; week 2): 25%
- reduction of rest LVOT gradient compared to baseline ([1]; week 2): 31%
- QoL after treatment withdrawal at 24 weeks compared with placebo ([2]; Index and VAS): worsened
- improvement of EQ-5D-5L VAS versus placebo [2, 5]: 2.8 points
- improvement of EQ-5D-5L index versus placebo [2, 5]: 0.026

— patent US20250295639A1, “METHODS FOR TREATING HEART DISEASES” (Cytokinetics, Incorporated, priority 2024, published 2025)
